Data set [1] is described as follows: clinical. Particulars: human, plasma, oral, 100 mg.
Text: Food effect was to be evaluated in Part 1, Period 2.
Pharmacokinetic data were to be summarized descriptively.
The nature of data set [2]: Cardiac conduction (QTcF) in healthy adult subjects. In kind it is in vivo, human.

A word on the Cmax: it is the maximum level reached in the sampled fluid or tissue. In the case of `Nc1nc(O[C@H](c2ccc(Cl)cc2-c2ccccc2)C(F)(F)F)cc(N2CCC3(CC2)CN[C@H](C(=O)O)C3)n1` [KAR5417, (S)-8-(2-amino-6-((R)-1-(5-chloro-[1,1T-biphenyl]-2-yl)-2,2,2-trifluoroeth-oxy)pyrimidin-4-yl)-2,8-diazaspiro[4.5]decane-3-carboxylic acid], in data set [1], the Cmax at 1 day was 121 ng/mL and the Cmax at 14 day was determined as 194 ng/mL. Moreover, the “tendency to increase QTcF in a dose-dependent manner” value in data set [2] is given as “Neither the prodrug (KAR5585) nor the active drug (KAR5417) showed any tendency to increase QTcF in a dose-dependent manner”.

The record behind these values is US20240041877A1, “DOSAGE REGIME AND METHOD FOR TREATING PULMONARY ARTERIAL HYPERTENSION” (Altavant Sciences GmbH, priority 2019, published 2024).
